Reference: patent publication US20090042894A1, “NOVEL SPECIES OF ACROCARPOSPORA, A METHOD OF PREPARING IODININ, AND THE USES OF IODININ” (FOOD INDUSTRY RESEARCH AND DEVELOPMENT INSTITUTE, priority 2007, published 2009)

How the values were obtained:
Assay type in all cases: cell-based
Details in all cases: iodinin 10 μg/ml, 72 hours
[1] = tested on: MCF-7 (human breast adenocarcinoma); experiment: MTT assay, cytotoxic effect on MCF-7 cells
Protocol: (§1) Cell growth inhibitory effects were determined by an MTT assay after treating the cell lines with 2, 5, and 10 μg/ml of iodinin for 72 hours. Mean±SE of four independent experiments are shown. The cytotoxic activity of the compound iodinin was tested in vitro in MRC-5, AGS, HeLa, HepG2 and MCF-7 cell lines.
(§2) MRC-5 (embryonal lung, normal, human, BCRC60023), AGS (Human gastric adenocarcinoma, BCRC 60102), HeLa (Human cervical epithelioid carcinoma, BCRC 60005), HepG2 (Human hepatoblastoma, BCRC 60177), and MCF7 (human breast adenocarcinoma, BCRC 60436) were purchased from BCRC, Food Industry Research and Development Institute, Taiwan. […]
(§3) The cytotoxic activities of the compound, iodinin, against all cell lines were assayed by a modified MTT [3-(4,5-dimethylthiazole-2-yl)-2,5-diphenyltetrazolium bromide] […] After 3 days of incubation, the cell numbers for each of the cell lines were determined by the following MTT assay: 20 μl of 1 mg/ml of MTT were added to each well of the plates, and the plates were then incubated at 37° C. for 5 hours. Formazan crystals were redissolved in 100 μl of DMSO (Merck) for 10 minutes via shaking, and the plates were read immediately on an ELISA reader (Bio-Tek) at a wavelength of 540 nm (Mosmann, 1983).

[2] = tested on: AGS (Human gastric adenocarcinoma); experiment: MTT assay, cytotoxic effect on AGS cells
Protocol: as §1, §2, §3

[3] = tested on: HepG2 (Human hepatoblastoma); experiment: MTT assay, cytotoxic effect on HepG2 cells
Protocol: as §1, §2, §3

[4] = tested on: HeLa (Human cervical epithelioid carcinoma); experiment: MTT assay, cytotoxic effect on HeLa cells
Protocol: as §1, §2, §3

[5] = tested on: MRC-5 (embryonal lung, normal, human); experiment: MTT assay, cytotoxic effect on MRC-5 cells
Protocol: as §1, §2, §3

## [O-][n+]1c2cccc(O)c2[n+]([O-])c2cccc(O)c21 [iodinin, 1,6-phenazinediol 5,10-dioxide]
[1]
  percentage of cell survival: 29%
[2]
  percentage of cell survival: 8%
[3]
  percentage of cell survival: 40%
[4]
  percentage of cell survival: 26%
[5]
  percentage of cell survival: 47%
